Here are results for three compounds from ChEMBL document CHEMBL4382216, “Asymmetric synthesis and biological evaluation of imidazole- and oxazole-containing synthetic lipoxin A4 mimetics (sLXms)” (Eur J Med Chem, 2019).

Each structure is given as a SMILES string. pIC50: −log10 of the molar value. Activity calls are given as the source filed them. No cut-off for these calls is given here.

For series [1], the target named is T1, N-formyl peptide receptor 2 (Homo sapiens) (UniProt P25090).
T1 sequence (whole entry): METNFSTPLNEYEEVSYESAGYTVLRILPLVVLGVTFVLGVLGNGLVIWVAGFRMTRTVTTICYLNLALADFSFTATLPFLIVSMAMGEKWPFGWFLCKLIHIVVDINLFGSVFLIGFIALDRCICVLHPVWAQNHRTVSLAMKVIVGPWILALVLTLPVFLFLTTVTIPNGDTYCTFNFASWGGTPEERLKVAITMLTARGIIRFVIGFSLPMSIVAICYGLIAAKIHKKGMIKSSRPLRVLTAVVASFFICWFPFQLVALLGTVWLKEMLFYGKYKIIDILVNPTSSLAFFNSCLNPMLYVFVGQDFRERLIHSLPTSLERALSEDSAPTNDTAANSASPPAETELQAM
The series is described as follows: Agonist activity at ALX/FPR2 in human THP1 cells harboring NF-kB-Luc assessed as inhibition of LPS-induced NFkB signalling activation by measuring NF-kB activation level at 10^-12 M pretreated for 30 mins followed by LPS stimulation for 24 hrs by luciferase reporter gene assay. In kind it is cell-based. Also on record: scale not given: the % may be the effect or the level left. On the technique in general: A reporter such as luciferase makes a cellular process visible.

In series [2] the target is T1, N-formyl peptide receptor 2 (Homo sapiens). Description: Agonist activity at ALX/FPR2 in human THP1 cells harboring NF-kB-Luc assessed as inhibition of LPS-induced NFkB signalling activation by measuring NF-kB activation level at 10^-8 M pretreated for 30 mins followed by LPS stimulation for 24 hrs by luciferase reporter gene assay. In kind it is cell-based. Details: scale not given: the % may be the effect or the level left.

Series [3] is filed under the species Homo sapiens. The series is described as follows: Activation of Luc-fused NFkB (unknown origin) expressed in non-stimulated human THP1 cells assessed as relative luminescence unit at 10^-12 M after 24 hrs by luciferase reporter gene assay (reference value: 100%). In kind it is cell-based.
For series [4], the species on record is Homo sapiens. Description: Activation of Luc-fused NFkB (unknown origin) expressed in non-stimulated human THP1 cells assessed as relative luminescence unit at 10^-11 M after 24 hrs by luciferase reporter gene assay (reference value: 100%). The class given is cell-based.
For series [5], the species on record is Homo sapiens. The series is described as follows: Activation of Luc-fused NFkB (unknown origin) expressed in non-stimulated human THP1 cells assessed as relative luminescence unit at 10^-10 M after 24 hrs by luciferase reporter gene assay (reference value: 100%). The class given is cell-based.
For series [6], the species on record is Homo sapiens. The series is described as follows: Activation of Luc-fused NFkB (unknown origin) expressed in non-stimulated human THP1 cells assessed as relative luminescence unit at 10^-9 M after 24 hrs by luciferase reporter gene assay (reference value: 100%). In kind it is cell-based.
The species named for series [7] is Homo sapiens. The series is described as follows: Activation of Luc-fused NFkB (unknown origin) expressed in non-stimulated human THP1 cells assessed as relative luminescence unit at 10^-8 M after 24 hrs by luciferase reporter gene assay (reference value: 100%). In kind it is cell-based.
The species named for series [8] is Homo sapiens. The series is described as follows: Activation of Luc-fused NFkB (unknown origin) expressed in non-stimulated human THP1 cells assessed as relative luminescence unit at 10^-7 M after 24 hrs by luciferase reporter gene assay (reference value: 100%). In kind it is cell-based.
The species named for series [9] is Homo sapiens. The series is described as follows: Activation of Luc-fused NFkB (unknown origin) expressed in non-stimulated human THP1 cells assessed as relative luminescence unit at 10^-6 M after 24 hrs by luciferase reporter gene assay (reference value: 100%). The class given is cell-based.
Series [10] addresses T1, N-formyl peptide receptor 2 (Homo sapiens). Description: Agonist activity at ALX/FPR2 in human THP1 cells harboring NF-kB-Luc assessed as inhibition of LPS-induced NFkB signalling activation by measuring IL-1beta secretion at 10^-11 M pretreated for 30 mins followed by LPS stimulation for 24 hrs by electrochemiluminescence assay. In kind it is cell-based. Details: scale not given: the % may be the effect or the level left.

Series [11] has the same target. Description: Agonist activity at ALX/FPR2 in human THP1 cells harboring NF-kB-Luc assessed as inhibition of LPS-induced NFkB signalling activation by measuring IL-1beta secretion at 10^-9 M pretreated for 30 mins followed by LPS stimulation for 24 hrs by electrochemiluminescence assay. In kind it is cell-based. Also on record: scale not given: the % may be the effect or the level left.

The target is the same in series [12]. The series is described as follows: Agonist activity at ALX/FPR2 in human THP1 cells harboring NF-kB-Luc assessed as inhibition of LPS-induced NFkB signalling activation by measuring IL-6 secretion at 10^-11 M pretreated for 30 mins followed by LPS stimulation for 24 hrs by electrochemiluminescence assay. Details: scale not given: the % may be the effect or the level left. In kind it is cell-based.

For series [13] the target is unchanged. Description: Agonist activity at ALX/FPR2 in human THP1 cells harboring NF-kB-Luc assessed as inhibition of LPS-induced NFkB signalling activation by measuring IFNgamma secretion at 10^-11 M pretreated for 30 mins followed by LPS stimulation for 24 hrs by electrochemiluminescence assay. In kind it is cell-based. Details: scale not given: the % may be the effect or the level left.

In series [14] the target is T2, N-formyl peptide receptor 2 (Homo sapiens, UniProt P25090).
T2 sequence (P25090 whole entry): T1 sequence (whole entry)
Description: Agonist activity at ALX/FPR2 in human THP1 cells harboring NF-kB-Luc assessed as inhibition of LPS-induced NFkB signalling activation by measuring reduction in IFNgamma secretion pretreated for 30 mins followed by LPS stimulation for 24 hrs by electrochemiluminescence assay. In kind it is cell-based. The note with it: read-out: IC50.

For series [15], the target named is T2, N-formyl peptide receptor 2. Description: Agonist activity at ALX/FPR2 in human THP1 cells harboring NF-kB-Luc assessed as inhibition of LPS-induced NFkB signalling activation by measuring reduction in IL-6 secretion pretreated for 30 mins followed by LPS stimulation for 24 hrs by electrochemiluminescence assay. In kind it is cell-based. Conditions: read-out: IC50.

Series [16] concerns THP-1. The series is described as follows: Cytotoxicity against human THP1 cells harboring NFkB-Luc assessed as LDH release at 10'12 M after 24 hrs by spectrophotometric method relative to control. The class given is cell-based. Conditions: thp-1, 24 h.
Series [17] concerns THP-1. The series is described as follows: Cytotoxicity against human THP1 cells harboring NFkB-Luc assessed as LDH release at 10'10 M after 24 hrs by spectrophotometric method relative to control. In kind it is cell-based. The note with it: thp-1, 24 h.
For series [18], the system named is THP-1. The series is described as follows: Cytotoxicity against human THP1 cells harboring NFkB-Luc assessed as LDH release at 10'9 M after 24 hrs by spectrophotometric method relative to control. In kind it is cell-based. Conditions: thp-1, 24 h. On the technique in general: LDH leaks from cells whose membrane has failed.
The test system of series [19] is THP-1. The series is described as follows: Cytotoxicity against human THP1 cells harboring NFkB-Luc assessed as LDH release at 10'8 M after 24 hrs by spectrophotometric method relative to control. The class given is cell-based. Conditions: thp-1, 24 h.
The test system of series [20] is THP-1. The series is described as follows: Cytotoxicity against human THP1 cells harboring NFkB-Luc assessed as LDH release at 10'7 M after 24 hrs by spectrophotometric method relative to control. The class given is cell-based. The note with it: thp-1, 24 h.
Series [21] relates to THP-1. The series is described as follows: Cytotoxicity against human THP1 cells harboring NFkB-Luc assessed as LDH release at 10'6 M after 24 hrs by spectrophotometric method relative to control. In kind it is cell-based. The note with it: thp-1, 24 h.
For series [22], the system named is Mus musculus. The series is described as follows: Anti-inflammatory activity in zymosan-induced C57BL/6J mouse peritonitis model assessed as total cell count in peritoneal cavity at 43 ng, ip pretreated for 30 mins followed by zymosan treatment and redosing of test compound at 1 hr post zymosan addition and measured at 24 hrs post zymosan addition by flow cytometry (reference value: 100%). In kind it is functional.

The subject of series [23] is Mus musculus. Description: Anti-inflammatory activity in zymosan-induced C57BL/6J mouse peritonitis model assessed as PMN leukocytes level in peritoneal cavity at 43 ng, ip pretreated for 30 mins followed by zymosan treatment and redosing of test compound at 1 hr post zymosan addition and measured at 24 hrs post zymosan addition by flow cytometry (reference value: 100%). The class given is functional.

A further series concerns HEK293. The series is described as follows: Induction of intracellular calcium accumulation in HEK293 cells at 0.01 nM to 100 nM by Fluo-4 dye based fluorescence spectrophotometric assay. Conditions: Homo sapiens. In kind it is functional, cell-based. (In general: A change in cytosolic calcium serves as a functional read-out for many receptors and channels.)

Broadly, the pIC50 is the negative decadic logarithm of the IC50, by convention in mol/L. Usually Emax stands for the size of the effect at its maximum, as opposed to the concentration needed. As to `CCCCC[C@@H](O)c1nc(-c2ccccc2)n(-c2ccccc2)c1/C=C/[C@@H](O)[C@@H](O)CCCC(=O)OC`, the Activity stood at 99.5% in series [1]; 84.4% in [2]; 1.7% in the series listed under Homo sapiens [3]; 1.5% in the series filed under Homo sapiens [4]; 1.5% in the series filed under Homo sapiens [5]; 1.5% in the series filed under Homo sapiens [6]. For the same compound, the Activity in the series listed under Homo sapiens [7] is 1.2%; in the series filed under Homo sapiens [8] it was 0.8%; in the series filed under Homo sapiens [9], 1.2%; in [10], 49.6%; in [11] it was 50.3%; in [12], 58.7%. In addition, the Activity in series [13] was 79.1%. Moreover, the negative logarithm of the IC50 (pIC50) in [14] is 7.73; in series [15], 9.30. The “fold change (FC)” value in the series with THP-1 [16] stood at 0.5; with THP-1 [17], 0.6; in the series with THP-1 [18], 0.8; in the series with THP-1 [19], 0.9; in the series with THP-1 [20], 1.1; in the series with THP-1 [21] it was 1.1. The Emax in the series with Mus musculus [22] was determined as 42.5%; with Mus musculus [23], 45.5%.
In the case of `CCCCC[C@H](O)c1nc(-c2ccccc2)n(-c2ccccc2)c1/C=C/[C@@H](O)[C@@H](O)CCCC(=O)OC`, the Activity in series [1] was 88.2%; in [2], 80.4%; in the series filed under Homo sapiens [3], 1.3%; in the series listed under Homo sapiens [4], 1.4%; in the series filed under Homo sapiens [5], 1.7%; in the series filed under Homo sapiens [6] it was 1.6%. Besides, the Activity was found to be 1.2% in the series listed under Homo sapiens [7]; 0.9% in the series filed under Homo sapiens [8]; 1.3% in the series listed under Homo sapiens [9]; 50.3% in [10]; 57.8% in series [11]; 69% in [12]. For the same compound, the Activity in series [13] stood at 69.1%. For the same compound, the pIC50 in [14] is 9.15; in series [15], 7.92. For the same compound, the “fold change (FC)” value is 0.6 in the series with THP-1 [16]; 0.6 with THP-1 [17]; 0.8 with THP-1 [18]; 1 with THP-1 [19]; 1.4 in the series on THP-1 [20]; 1.6 with THP-1 [21]. The outcome in the series with HEK293 was inactive. Besides, the results for the Emax with Mus musculus [22] and in the series on Mus musculus [23] were 19.5% and 18.2%, respectively.
For the compound `CCCCC[C@H](O)/C=C/C=C\C=C\C=C\[C@@H](O)[C@@H](O)CCCC(=O)O` [LIPOXIN A4], the Activity in series [1] was found to be 95.3%; in series [2], 83.3%; in the series listed under Homo sapiens [6], 1.5%; in series [10], 6.6%; in series [11], 4.3%; in series [12] it was 2.6%. In [13], the Activity was 30.3%. Moreover, the values for the pIC50 in series [14] and in series [15] were 7.65 and 8.77, respectively. The outcome in the series with HEK293 was inactive.
